Experimental data reported in patent US8338430B2, “N-substituted piperazines” (Dow AgroSciences, LLC., priority 2005, dated 2012).
Like-named read-outs stand apart in the source and are kept apart here.

How the values were obtained:
Assay type in all cases: in vivo
[1] = test system: fruit fly (Drosophila melanogaster) adults; assay: Adult fruit fly mortality on artificial diet (DROSME); details: 72 h, read-out: DROSME: % mortality against adult fruit fly on artificial diet
Experimental: (§1) The compounds identified in TABLE 2 were prepared using the procedures illustrated in the previous examples and these compounds were tested against beet armyworm, mosquito, fruit fly, and cotton aphid using protocols described after.
(§2) Compounds were evaluated on mosquito (Aedes aegypti) larvae, beet armyworm (Spodoptera exigua) larvae, fruit fly (Drosophila melanogaster) adults and cotton aphid (Aphis gossypi). Newly hatched mosquito larvae (about 50 larvae/well) in 96-well microtiter plates in 230 ul of water containing powdered liver/yeast extract (1 gr/100 ml) were treated with 20 ppm solution of the test compound. Following treatment the plates were covered with a lid and mortality was determined three days after treatment. Beet armyworm eggs (about 5 per well) were placed on artificial diet (in a 96-well microtiter plate) treated with a 4000 ppm solution of a test compound in combination with piperonyl butoxide (in approximate ratio of 1:4). After infestation, the plates were covered with a lid and mortality was determined seven days following treatment. Five-day old fruit fly adults (about 5/well) were placed in deep-well microtiter plates containing 250 ul/well of a 2% agar-10% sucrose mixture that had been treated with a 4000 ppm solution of a test compound. Following infestation, the plates were covered with a lid and mortality was determined three days after treatment. Treatments for the mosquito and armyworm were replicated six times each, that of the fruit fly three times each.

[2] = test system: cotton aphid (Aphis gossypi); assay: Cotton aphid foliar spray test on squash (CA 200); details: 72 h, squash cotyledons, 3 days, Corrected % Control (Abbott), read-out: CA 200: % control against cotton aphid in foliar spray tests
Experimental: The compounds identified in TABLE 2 were prepared using the procedures illustrated in the previous examples and these compounds were tested against beet armyworm, mosquito, fruit fly, and cotton aphid using protocols described after. […]
Squash with fully expanded cotyledon leaves were trimmed to one cotyledon per plant and infested with cotton aphid (wingless adult and nymph) 1 day prior to chemical application.
Each plant is examined before chemical application to ensure proper infestation (ca. 30-70 aphids per plant). Compounds (3 mg) were dissolved in 3 mL of acetone:methanol (50:50) solvent, forming stock solutions of 1000 ppm. The stock solutions were then diluted with 0.025% Tween 20 (in H2O) to make […]. A hand-held Devilbiss sprayer was used to apply the spray solutions until runoff to both sides of the squash cotyledon leaves. Four plants (4 replications) were used for each concentration of each compound. Reference plants (solvent check) were sprayed with 0.025% Tween 20 only. Treated plants were held in a holding room for 3 days at approximately 23° C. and 40% RH before the number of live aphids on each plant was recorded. Insecticidal activity was measured by Corrected % Control using Abbott's correction formula and presented in TABLE 2: Corrected % Control=100*(X−Y)/X • where X=No. of live aphids on solvent check plants • Y=No. of live aphids on treated plants

[3] = test system: beet armyworm (Spodoptera exigua) larvae; assay: Beet armyworm mortality on artificial diet (LAPHEG); details: 168 h, read-out: LAPHEG: % mortality against beet armyworm on artificial diet
Experimental: as §1, §2

[4] = test system: mosquito (Aedes aegypti) larvae; assay: Mosquito larvae mortality (AEDSAE); details: 72 h, read-out: AEDSAE: % mortality against mosquito larvae
Experimental: as §1, §2

[5] = test system: Mycosphaerella graminicola=Septoria tritici; assay: Fungicidal test for SEPTTR, speckled leaf blotch of wheat, one day protectant; details: 24 h, wheat plants (variety Monon), sprayed one day before inoculation
Experimental: The compounds identified in Table 4 were prepared using the procedures illustrated in the previous examples and these compounds were tested against wheat glume blotch and wheat leaf blotch using the protocols described herein. Fungicidal Test for […] Speckled Leaf Blotch of Wheat (Mycosphaerella graminicola=Septoria tritici; Bayer code […]): Wheat plants (variety Monon) were grown from seed in a greenhouse in 50% pasteurized soil/50% soil-less mix until the first true leaf was fully expanded, with 3-8 seedlings per pot. These plants were sprayed until wet with the formulated test compound at a rate of 25 ppm. On the following day, the leaves were inoculated with an aqueous spore suspension of Septoria tritici and the plants were kept in high humidity (one day in a dark dew chamber followed by four to seven days in a lighted dew chamber) to permit spores to germinate and infect the leaf The plants were then transferred to a greenhouse until disease developed on untreated control plants.

[6] = test system: Leptosphaeria nodorum=Stagnospora nodorum; assay: Fungicidal test for LEPTNO, glume blotch of wheat, one day protectant; details: 24 h, wheat plants (variety Yuma), sprayed one day before inoculation
Experimental: The compounds identified in Table 4 were prepared using the procedures illustrated in the previous examples and these compounds were tested against wheat glume blotch and wheat leaf blotch using the protocols described herein. Fungicidal Test for […] Each pot contained 3-20 seedlings. These plants were sprayed until wet with the formulated test compound at a rate of 25 ppm. On the following day, the leaves were inoculated with an aqueous spore suspension of Leptosphaeria nodorum and the plants were kept in high humidity (one day in a dark dew chamber followed by four to seven days in a lighted dew chamber) to permit spores to germinate and infect the leaf. The plants were then transferred to a greenhouse until disease developed on untreated control plants.

[7] = 4000 μg/ml, mortality three days after treatment
[8] = 4000 μg/ml, with piperonyl butoxide (approx. 1:4), mortality seven days after treatment
[9] = 20 μg/ml, mortality three days after treatment

SMILES	mortality at 4000 µg/mL [1, 7] [%]	pest or weed control at 200 ppm [2] [%]	mortality at 4000 µg/mL [3, 8] [%]	mortality at 20 µg/mL [4, 9] [%]	mortality at 4000 µg/mL [1] [%]	mortality at 4000 µg/mL [3] [%]	mortality at 20 µg/mL [4] [%]	pest or weed control at 25 ppm [5] [%]	pest or weed control at 25 ppm [6] [%]
N#Cc1cccc(CN2CCN(CCc3ccccc3)CC2)c1 [Compound 17, 3-{[4-(2-phenylethyl)piperazin-1-yl]methyl}benzonitrile]	26 to 49	1 to 25	1 to 25	1 to 25					
O=C(c1ccco1)N1CCN(Cc2ccccc2)CC1 [Compound 34]	1 to 25		1 to 25	1 to 25					
O=C(Cc1ccc(Cl)cc1)N1CCN(Cc2ccccc2)CC1 [Compound 38]		50 to 100			1 to 25	1 to 25	1 to 25		
O=C(c1ccc(Cl)cc1)N1CCN(Cc2ccccc2)CC1 [Compound 44]	1 to 25	1 to 25	1 to 25	1 to 25					
O=C(c1coc2ccccc12)N1CCN(Cc2ccccc2)CC1 [Compound 50]	1 to 25	50 to 100	1 to 25	1 to 25					
FC(F)(F)c1ccccc1CCN1CCN(Cc2cc3c(cc2Cl)OCO3)CC1 [Compound 86]	1 to 25	50 to 100	1 to 25	26 to 49					
FC(F)(F)c1ccc(CN2CCN(CCc3ccccc3C(F)(F)F)CC2)o1 [Compound 87]	1 to 25	26 to 49	1 to 25	1 to 25					
COC(=O)c1cccc(CN2CCN(CCc3ccccc3)CC2)c1 [Compound 90]	26 to 49	50 to 100	1 to 25	1 to 25					
FC(F)(F)Oc1cccc(CN2CCN(CCc3ccccc3)CC2)c1 [Compound 91]	26 to 49	1 to 25	1 to 25	1 to 25					
COc1ccc(CN2CCN(CCc3ccccc3C(F)(F)F)CC2)cc1Cl [Compound 95]	26 to 49	50 to 100	1 to 25	1 to 25					
CC(C)(C)OC(=O)N1CCN(CCc2ccccc2C(F)(F)F)CC1 [Compound 96]	1 to 25	50 to 100	26 to 49	1 to 25					
COc1cc(CN2CCN(CCc3ccccc3C(F)(F)F)CC2)c([N+](=O)[O-])cc1OC [Compound 99]	1 to 25	50 to 100	1 to 25	1 to 25					
FC(F)(F)c1ccccc1CCN1CCN(CC2COc3ccccc3O2)CC1 (stereo not drawn) [Compound 100]	26 to 49	50 to 100	1 to 25	1 to 25					
FC(F)(F)c1ccccc1CCN1CCN(Cc2ccccc2Cl)CC1 [Compound 101]	1 to 25	50 to 100	1 to 25	1 to 25					
Clc1cc2c(cc1CN1CCN(CCC3CCCCC3)CC1)OCO2 [Compound 102]	1 to 25	50 to 100	1 to 25	1 to 25					
Clc1cc2c(cc1CN1CCN(CCOc3ccccc3)CC1)OCO2 [Compound 103]	1 to 25	50 to 100	1 to 25	1 to 25					
Clc1cc2c(cc1CN1CCN(CCc3ccccc3)CC1)OCO2 [Compound 104]	50 to 100	50 to 100	1 to 25	1 to 25					

SMILES	mortality at 4000 µg/mL [1, 7] [%]	pest or weed control at 200 ppm [2] [%]	mortality at 4000 µg/mL [3, 8] [%]	mortality at 20 µg/mL [4, 9] [%]	mortality at 4000 µg/mL [1] [%]	mortality at 4000 µg/mL [3] [%]	mortality at 20 µg/mL [4] [%]	pest or weed control at 25 ppm [5] [%]	pest or weed control at 25 ppm [6] [%]
CC(=O)c1ccccc1C(=O)N1CCN(CCc2ccccc2C(F)(F)F)CC1 [Compound 105]	1 to 25	50 to 100	1 to 25	1 to 25					
FC(F)(F)c1ccccc1CCN1CCN(Cc2ccc3c(c2)OCO3)CC1 [Compound 107]	50 to 100	50 to 100	1 to 25	1 to 25					
COc1ccc(CN2CCN(CCc3ccccc3C(F)(F)F)CC2)c(Cl)c1OC [Compound 108]	1 to 25	50 to 100	1 to 25	1 to 25					
CCOCCN1CCN(Cc2ccc(OCc3ccccc3)cc2)CC1 [Compound 109]								50 to 100	1 to 25
c1ccc(-c2ccccc2CN2CCN(CCc3ccccn3)CC2)cc1 [Compound 110]								50 to 100	1 to 25
O=C(c1ccc(-c2ccccn2)s1)N1CCN(CCc2ccccc2C(F)(F)F)CC1 [Compound 126]	1 to 25	50 to 100	1 to 25	1 to 25					
O=C(COc1ccccc1)N1CCN(C(=O)OCc2ccccc2)CC1 [Compound 139]	1 to 25		26 to 49	1 to 25					
O=C(OCc1ccccc1)N1CCN(C(=O)c2cccs2)CC1 [Compound 146]	1 to 25		1 to 25	1 to 25					
O=C(c1ccc2ccccc2n1)N1CCN(CCc2ccccc2C(F)(F)F)CC1 [Compound 156]	1 to 25	50 to 100	1 to 25	1 to 25					
O=C(OCc1ccccc1)N1CCN(C(=O)c2ccc3ccccc3n2)CC1 [Compound 159]	1 to 25		1 to 25	1 to 25					
Cc1nn(C)c2sc(C(=O)N3CCN(CCc4ccccc4C(F)(F)F)CC3)cc12 [Compound 160]	1 to 25	1 to 25	1 to 25	1 to 25					
Cc1nn(C)c2sc(C(=O)N3CCN(C(C)c4ccccc4)CC3)cc12 (stereo not drawn) [Compound 162]	26 to 49		1 to 25	1 to 25					
O=C(OCc1ccccc1)N1CCN(Cc2ccc(Cl)nc2)CC1 [Compound 192]	1 to 25		1 to 25	1 to 25					
COC(=O)c1cccc(CN2CCN(CCOc3ccccc3)CC2)c1 [Compound 303]	26 to 49		1 to 25	1 to 25					
O=C(c1ccccc1)c1ccc(CN2CCN(C(=O)C3CC3)CC2)cc1 [Compound 321]	1 to 25		1 to 25	1 to 25					
CC(CN1CCN(Cc2cc3c(cc2Cl)OCO3)CC1)c1ccccc1 (stereo not drawn) [Compound 333]	50 to 100	50 to 100	1 to 25	1 to 25					
